# Test results reported in patent publication US9687467B2, “Diagnosis and treatment of taxane-resistant cancers” (Children's Medical Center Corporation, priority 2011, dated 2017).
# Experiments:
# A549 control cells = assay: Xenograft of A549 control cells, paclitaxel treatment; format: in vivo, nude mice; conditions: paclitaxel three times a week for 3 weeks; P<0.001
# Method: A549 cells stably expressing either non-targeting premiR (A549-control) or premiR-135a (A549-miR-135a) were generated. (FIG. 8A) miR-135a expression level in A549-control and -miR-135a was determined and compared with A549 and A549TR cells using qRT-PCR analysis. *P<0.01. (FIG. 8B) Paclitaxel response of A549-control and A549-premiR-135a cells was determined using the MTT assay. (FIG. 8C) APC protein expression was examined using western blot analysis in A549-control and -premiR-135a cells. (FIG. 8D) A549-control and -premiR-135a cells were inoculated subcutaneously into the flanks of nude mice. Paclitaxel treatment was given three times a week for 3 weeks. The tumor size in each group was measured during the course of treatment and was calculated, relative to the size before treatment initiation. Each curve represents the average tumor growth±s.e.m. for 10 mice per group. **P<0.001 as determined by Wilcoxon's rank sum test.
# The inventors subsequently investigated the role of miR-135a in paclitaxel sensitivity in vivo. […] As expected, miR-135a […] attenuated paclitaxel-induced cell death (FIG. 8B) and APC protein expression (FIG. 8C) relative to control transfected A549 cells in vitro. […] Paclitaxel treatment was given three times a week for 3 weeks, and tumor size in each group was monitored during the course of treatment. […]
# MES-SA cells = assay: MTT cell viability assay, paclitaxel response; format: cell-based, human; conditions: 100 nM paclitaxel for 72 h
# Method: The paclitaxel-resistant cell lines MES-SA^DX5 and A549^TR were transfected with a scrambled non-targeting miRNA (control) and an miR-135a mimic (mimic), respectively. Cells were subsequently treated with 100 nM paclitaxel and cell viability was assessed using the MTT assay (FIGS. 2A, 2B). The percentage of apoptotic cells was assessed by Annexin V-staining and FACS analysis (FIGS. 2C, 2D). Values are presented as percent cell survival in paclitaxel-treated cells relative to untreated cells. *P<0.05, **P<0.001 as determined by Wilcoxon's rank sum test.
# FIGS. 4A-4E are a series of micrographs and line graphs showing that miR-135a-mediated APC suppression contributes to paclitaxel resistance. MES-SA and A549 cells were mock-transfected (mock), transfected with a scrambled siRNA (siControl) or with siRNA directed against APC (siAPC). […] Transfected A549 (FIG. 4B) and MES-SA (FIG. 4C) cells were treated with paclitaxel and viability was assessed using the MTT assay. […] (FIG. 4E) Both A549-shCON and -shAPC cells were treated with paclitaxel and cell viability was measured using the MTT assay. […]
# Cell growth inhibition was determined by a 3-(4,5-dimethylthiazol-2-yl)-2,5-diphenyltetrazolium (MTT) bromide assay. […] Absorbance was determined using a 96-well SpectraMax plate reader (Molecular Devices, Sunnyvale, Calif.) at 560 nm and 650 nm (background). […]
# [1] = Mouse weight during paclitaxel treatment; format: in vivo, nude mice; conditions: 15 mg/kg paclitaxel intraperitoneally 3 times per week
# Method: FIG. 11 is a line graph indicating mouse weight in paclitaxel-treated and control groups. Tumor-bearing nude mice were treated i.p. with 15 mg/kg paclitaxel every other day. Animals were weighed before each injection on a digital scale. Each curve represents the mean weight±s.e.m. of 10 mice per day of treatment.
# Approximately 4×10^6 human A549 NSCLC cells were resuspended in 50% Matrigel (BD Biosciences, Bedford, Mass.) and injected subcutaneously into the hind flanks of 8-wk old male athymic (nu/nu) nude mice (Taconic Farms, Inc., Hudson, N.Y.). When the average tumor volume reached ˜150 mm^3, mice (N=10 per group) were randomly assigned to the treatment or control group (Day 0). Mice were treated with vehicle (control) or 15 mg/kg paclitaxel (Bristol-Myers Squibb Co, Princeton, N.J.) intraperitoneally 3 times per week (on Mondays, Wednesdays, and Fridays). […] Tumor size was determined by digital caliper measurements (length and width in mm), and tumor volume (mm^3) was estimated using the formula (length×width^2)/2. Effects on tumor growth rate were assessed per mouse by determining the tumor volume on the day of treatment relative to the tumor volume on Day 0. Animals were sacrificed once morbidity became evident or their tumor size exceeded 1000 mm^3. […]
smiles,measurement,setting,value
CC(=O)O[C@H]1C(=O)[C@@]2(C)[C@H]([C@H](OC(=O)c3ccccc3)[C@]3(O)C[C@H](OC(=O)[C@H](O)[C@@H](NC(=O)c4ccccc4)c4ccccc4)C(C)=C1C3(C)C)[C@]1(OC(C)=O)CO[C@@H]1C[C@@H]2O [paclitaxel],reduction of relative tumor burden at the end of the experiment,A549 control cells,5 fold
same,cell survival,MES-SA cells,21.8%
same,mouse morbidity as measured by mouse weight,[1],minimal effects on mouse morbidity
